Experimental data reported in patent US6824998B2, “Compounds and methods for detecting tripeptidyl protease I” (University of Iowa Research Foundation, priority 2003, dated 2004).

Target: T1, TPP-1 (Mus musculus, UniProt O89023)
T1 construct: from tissue; host or cells: frozen 10 µm sections of paraformaldehyde-fixed tissues (e.g. kidney) from C57BL/6J mice (Jackson Laboratory)
T1 sequence (O89023 195-562): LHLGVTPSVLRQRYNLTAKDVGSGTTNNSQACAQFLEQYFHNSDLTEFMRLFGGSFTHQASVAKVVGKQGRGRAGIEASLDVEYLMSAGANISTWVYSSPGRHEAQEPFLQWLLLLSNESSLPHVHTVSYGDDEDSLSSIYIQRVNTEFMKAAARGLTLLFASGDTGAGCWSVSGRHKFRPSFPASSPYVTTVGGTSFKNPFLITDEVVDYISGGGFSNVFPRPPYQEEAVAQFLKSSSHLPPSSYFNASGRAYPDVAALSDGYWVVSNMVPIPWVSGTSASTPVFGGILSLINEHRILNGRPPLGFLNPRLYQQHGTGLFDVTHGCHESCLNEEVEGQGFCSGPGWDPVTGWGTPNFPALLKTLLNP
Assay: TPP-1 histochemical staining of frozen sections of murine tissues
Format: biochemical
Settings: for Effectiveness of p-NBA and p-AA versus benzaldehyde with regard to precipitate density and color: aldehyde comparison; for Hydrolysis by endogenous TPP-1 in murine tissues / Specificity of TPP-1 detection / background activity: frozen sections of murine tissues
Description: C57BL/6J mice (6 to 8 weeks old) were purchased from the Jackson Laboratory (Bar Harbor, Me.). The mice were sacrificed with an overdose of anesthetic and then transcardially perfused with 0.9% (w/v) saline solution, followed by 2% paraformaldehyde in 0.2 M phosphate buffer. The tissues were removed and post-fixed for 2 hours. After fixation, the tissues were cryoprotected by immersion in 25% sucrose and frozen in OCT compound (Sakura Finetek U.S.A., Inc, Torrance, Calif.). Sections (10 μm) were cut with a cryostat and mounted onto gelatin-coated slides.
Sections were embedded in 0.5% celloidin, followed by incubation in substrate solutions. The sections were incubated in substrate solutions containing 1 mM of the compound, 1 mg/mL of benzaldehyde (BA) or p-anisaldehyde (p-AA) or p-nitrobenzaldehyde (p-NBA) in 0.1 M acetate buffer (pH 4.5) at 37° C. for 4 hours. Slides were rinsed and cover-slipped before viewing on a Leica DM RBE microscope equipped with a Spot-RT Digital Camera and associated software. For all experiments, tissue staining was repeated on a minimum of 5 sections/animal per compound. A minimum of three individual animals was tested to confirm consistency of the results.
Five different compounds, compounds 10, 16, 20, 27, and 31, were tested histochemically on frozen sections of murine tissues. The substrates were systematically compared for sensitivity to TPP-1 activity using conditions to control the rate of crystalline formation and diffusion of product.

Row | Autofluorescence of the final reaction product of TPP-1 histochemical staining (Benzaldehyde) | Color of the final reaction product of TPP-1 histochemical staining (Benzaldehyde) | Effectiveness of p-NBA and p-AA versus benzaldehyde with regard to precipitate density and color | Hydrolysis by endogenous TPP-1 in murine tissues | Specificity of TPP-1 detection / background activity | Autofluorescence of the final reaction product of TPP-1 histochemical staining (p-Anisaldehyde) | Color of the final reaction product of TPP-1 histochemical staining (p-Anisaldehyde) | Autofluorescence of the final reaction product of TPP-1 histochemical staining (p-Nitrobenzaldehyde) | Color of the final reaction product of TPP-1 histochemical staining (p-Nitrobenzaldehyde) | SMILES | Sensitivity for detecting TPP-1 activity (combination with p-AA, purple precipitates in areas of high endogenous enzyme activity (e.g., kidney)) | Effectiveness as histochemical reagent for detecting TPP-1 (particularly when combined with p-anisaldehyde)
1 | – | Yellow-green | more effective than benzaldehyde itself | readily hydrolyzed | low to no background activity | – | Yellow-green | – | Yellow-green | C[C@H](N)C(=O)N[C@@H](C)C(=O)N[C@@H](Cc1ccccc1)C(=O)NNc1cccc2c1C(=O)c1ccccc1C2=O [Compound 27, L-Ala-L-Ala-L-Phe-1-anthraquinonylhydrazide] | – | –
2 | – | – | – | no evidence of hydrolysis | – | – | – | – | – | C[C@H](N)C(=O)N[C@@H](C)C(=O)N[C@H](Cc1ccccc1)C(=O)NNc1cccc2c1C(=O)c1ccccc1C2=O [Compound 31, L-Ala-L-Ala-D-Phe-1-anthraquinonylhydrazide] | – | –

More lines, now with the values behind:

Row | SMILES | Autofluorescence of the final reaction product of TPP-1 histochemical staining (Benzaldehyde) | Color of the final reaction product of TPP-1 histochemical staining (Benzaldehyde) | Effectiveness of p-NBA and p-AA versus benzaldehyde with regard to precipitate density and color | Hydrolysis by endogenous TPP-1 in murine tissues | Specificity of TPP-1 detection / background activity | Autofluorescence of the final reaction product of TPP-1 histochemical staining (p-Anisaldehyde) | Color of the final reaction product of TPP-1 histochemical staining (p-Anisaldehyde) | Autofluorescence of the final reaction product of TPP-1 histochemical staining (p-Nitrobenzaldehyde) | Color of the final reaction product of TPP-1 histochemical staining (p-Nitrobenzaldehyde) | Sensitivity for detecting TPP-1 activity (combination with p-AA, purple precipitates in areas of high endogenous enzyme activity (e.g., kidney)) | Effectiveness as histochemical reagent for detecting TPP-1 (particularly when combined with p-anisaldehyde)
3 | C[C@H](NC(=O)[C@@H]1CCCN1C(=O)CN)C(=O)n1nc2c3c(c(Cl)ccc31)C(=O)c1ccccc1-2 [Compound 10, Gly-L-Pro-L-Ala-5-chloro-1-anthra[1,9-cd]pyrozol-6(2H)-one] | Autofluorescent | Yellow-green | more effective than benzaldehyde itself | readily hydrolyzed | low to no background activity | Autofluorescent | Yellow-green | Autofluorescent | Yellow-green | – | –
4 | C[C@H](NC(=O)[C@@H]1CCCN1C(=O)CN)C(=O)NNc1cccc2c1C(=O)c1ccccc1C2=O [Compound 16, Gly-L-Pro-L-Ala-1-anthraquinonylhydrazide] | – | – | – | no evidence of hydrolysis | – | – | – | – | – | – | –
5 | NCC(=O)N1CCC[C@H]1C(=O)N[C@@H](CO)C(=O)NNc1cccc2c1C(=O)c1ccccc1C2=O [Compound 20, Gly-L-Pro-L-Ser-1-anthraquinonylhydrazide] | – | Brown | more effective than benzaldehyde itself | readily hydrolyzed | low to no background activity | – | Dark Purple | – | Brown | most sensitive | most effective histochemical reagent
